≈ marks a conversion by molar mass, not a printed value. Read-outs that look alike come from different tables or passages of the source.
Tests used:
K. pneumoniae 13883 = experiment: MIC assay (broth microdilution, CLSI); format: cell-based, Klebsiella pneumoniae; details: Klebsiella pneumoniae, 13883; read-out: K. pneumoniae 13883 MIC
[1] = test system: methicillin-resistant S. aureus (MRSA) strains; experiment: MIC assay, values summarised over MRSA strains; format: cell-based, Staphylococcus aureus
P. aeruginosa (PAO1) = experiment: MIC assay (broth microdilution, CLSI); format: cell-based; details: Pseudomonas aeruginosa, PAO1; read-out: PAO1 MIC
[2] = test system: MRSA BAA-1707 planktonic cells and biofilms; experiment: Calgary Biofilm Device (CBD) assay, MBC/MBEC; details: Staphylococcus aureus, read-out: MRSA BAA-1707 MBC
E. coli UAEC-1 = experiment: MIC assay (broth microdilution, CLSI); format: cell-based; details: Escherichia coli, UAEC1; read-out: E. coli UAEC-1 MIC
human red blood cells = experiment: Hemolysis assay with red blood cells; details: human, 1 h, 200 μM, pH 7.2
Outline: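 Washed human red blood cells exposed to compounds added from DMSO stocks, 1 h at 37° C.; supernatant OD read at 405 nm after centrifugation. % hemolysis calculated relative to DMSO (0%) and Triton X (100%) controls, from three independent experiments.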

[3] = test system: Enterococcus faecium (ATCC 700221), VRE; experiment: MIC assay (broth microdilution, CLSI); format: cell-based
[4] = test system: MRSA BAA-44 planktonic cells and biofilms; experiment: Calgary Biofilm Device (CBD) assay, MBC/MBEC; details: Staphylococcus aureus, read-out: MRSA BAA-44 MBC
[5] = test system: VRE (E. faecium ATCC 700221) planktonic cells and biofilms; experiment: Calgary Biofilm Device (CBD) assay, MBC/MBEC; format: cell-based, Enterococcus faecium; details: Enterococcus; Table 8; c lowest concentration tested; read-out: VRE 700221 MBC
[6] = test system: MRSA-2 planktonic cells and biofilms; experiment: Calgary Biofilm Device (CBD) assay, MBC/MBEC; format: cell-based, Staphylococcus aureus; details: Staphylococcus aureus, MRSA
[7] = test system: MRSE (S. epidermidis ATCC 35984) planktonic cells and biofilms; experiment: Calgary Biofilm Device (CBD) assay, MBC/MBEC; format: cell-based, Staphylococcus epidermidis; details: Staphylococcus epidermidis; Table 8; read-out: MRSE 35984 MBC
A. baumannii 19606 = experiment: MIC assay (broth microdilution, CLSI); format: cell-based, Acinetobacter baumannii; details: Acinetobacter baumannii, 19606; read-out: A. baumannii 19606 MIC
MRSA BAA-44 = experiment: MIC assay (broth microdilution, CLSI); details: Staphylococcus aureus, read-out: MIC, MRSA BAA-44
in vitro = format: cell-based; details: human
HeLa cells = experiment: in vitro; format: cell-based; details: human, 24 h
E. faecium 700221 (VRE) = experiment: MIC assay with Tiron or metal(II) cation co-treatment; format: cell-based, Enterococcus faecium; details: Enterococcus faecium, VRE
[8] = test system: MRSA-1 (methicillin-resistant Staphylococcus aureus clinical isolate); experiment: MIC assay (broth microdilution, CLSI); format: cell-based; details: Staphylococcus aureus, MRSA, Table 11; read-out: MIC, MRSA-1
[9] = test system: S. aureus clinical isolate SA 156; experiment: MIC assay (broth microdilution, CLSI); details: Staphylococcus aureus, read-out: MIC, SA 156
[10] = test system: Staphylococcus epidermidis (ATCC 35984), MRSE; experiment: MIC assay (broth microdilution, CLSI); format: cell-based; details: Staphylococcus epidermidis
[11] = Aqueous solubility under MIC assay conditions; format: physicochemical; details: MIC assay media, 37 °C, aqueous buffer; read-out: [aq. soluble]
[12] = test system: S. aureus clinical isolate SA 138; experiment: MIC assay (broth microdilution, CLSI); details: Staphylococcus aureus, read-out: MIC, SA 138
MRSA-2 = experiment: MIC assay with Tiron or metal(II) cation co-treatment; format: cell-based, Staphylococcus aureus; details: Staphylococcus aureus; MRSA-2, no additive (Table 9); read-out: MIC
[13] = test system: M. tuberculosis H37Ra (ATCC 25177); experiment: Mycobacterium tuberculosis MIC assay; format: cell-based; details: Mycobacterium tuberculosis
Outline: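 Culture diluted to OD600 0.01 and exposed to compounds in 0.5% final DMSO, each compound tested in three rows. Growth read as OD600 absorbance. Data from three independent experiments.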

[14] = test system: S. aureus clinical isolate SA 129; experiment: MIC assay (broth microdilution, CLSI); details: Staphylococcus aureus, read-out: MIC, SA 129
[15] = test system: Staphylococcus epidermidis (ATCC 12228); experiment: MIC assay (broth microdilution, CLSI); format: cell-based; details: Staphylococcus epidermidis
MRSA BAA-1707 = experiment: MIC assay (broth microdilution, CLSI); details: Staphylococcus aureus, read-out: MIC, MRSA BAA-1707
[16] = test system: MRSA-2 (methicillin-resistant Staphylococcus aureus clinical isolate); experiment: MIC assay (broth microdilution, CLSI); format: cell-based; details: Staphylococcus aureus, MRSA, read-out: MIC, MRSA-2
[17] = Enterococcus faecium, Table 2A, read-out: MIC, Enterococcus faecium (ATCC 700221)
[18] = Table 7, b lowest concentration tested, read-out: MIC, VRE 700221

Q: What does the source list for `Oc1c(Br)cc(I)c2nc3ccccc3nc12` [Compound 8, 2-Bromo-4-iodo-1-hydroxyphenazine]?
A: MIC (K. pneumoniae 13883): > 100 µM; growth inhibition activity against at least one MRSA strain [1]: sub-micromolar; MIC (P. aeruginosa (PAO1)): > 100 µM; MBC [2]: 23.5 µM (≈ 9.42 µg/mL); MIC (E. coli UAEC-1): > 100 µM; % Hemolysis (200 μM) (human red blood cells): 2.9%; % Hemolysis at 200 μM (human red blood cells): 2.9%; MIC [3, 17]: 6.25 µM (≈ 2.51 µg/mL); MIC [3, 18]: 6.25 µM (≈ 2.51 µg/mL); MBC [4]: 46.9 µM (≈ 18.8 µg/mL); MBC [5]: 3 µM (≈ 1.2 µg/mL); MBC ([6]; Table 4, read-out: MBC, MRSA-2): 31.3 µM (≈ 12.6 µg/mL); MBC ([6]; Table 8, a/b 2-/4-fold range in independent experiments, read-out: MRSA-2 MBC): 31.3 µM (≈ 12.6 µg/mL); MBC [7]: 11.7 µM (≈ 4.69 µg/mL); melting point: 186 to 188 °C; MIC (A. baumannii 19606): 50 µM (≈ 20.1 µg/mL); MIC (MRSA BAA-44): 1.17 µM (≈ 0.469 µg/mL); IC50 at 24 h (in vitro): > 100 µM; IC50 (HeLa cells): > 100 µM; MIC (E. faecium 700221 (VRE); E. faecium 700221, 200 μM CuSO4, read-out: MIC with Cu^2+): 3.13 µM; MIC (E. faecium 700221 (VRE); E. faecium 700221, 1 mM Tiron, read-out: MIC with Tiron): 3.13 µM; MIC (E. faecium 700221 (VRE); E. faecium 700221, no additive, read-out: MIC): 3.13 µM

Q: Which MIC (K. pneumoniae 13883) does the source give for `Oc1ccc(Br)c2nc3cc(Cl)c(Cl)cc3nc12` [Compound 11] here?
A: > 100 µM

Q: What about the MIC [8] of the same compound?
A: 0.39 µM (≈ 0.134 µg/mL)

Q: What about the “growth inhibition activity against at least one MRSA strain” value [1] of the same compound?
A: sub-micromolar

Q: What about the MIC [9] of the same compound?
A: 1.17 µM (≈ 0.402 µg/mL)

Q: What about the MIC (P. aeruginosa (PAO1)) of the same compound?
A: > 100 µM

Q: What about the MIC ([10]; Table 2A, read-out: MIC, Staphylococcus epidermidis (ATCC 35984)) of the same compound?
A: 1.56 µM (≈ 0.537 µg/mL)

Q: And the MIC ([10]; Table 7, read-out: MIC, MRSE 35984)?
A: 1.56 µM (≈ 0.537 µg/mL)

Q: And the MIC (E. coli UAEC-1)?
A: > 100 µM

Q: And the “% Hemolysis (200 μM)” value (human red blood cells)?
A: 2.7%

Q: What about the “% Hemolysis at 200 μM” value (human red blood cells) of the same compound?
A: 2.7%

Q: And the MIC [3, 17]?
A: 6.25 µM (≈ 2.15 µg/mL)

Q: What about the MIC [3, 18] of the same compound?
A: 6.25 µM (≈ 2.15 µg/mL)

Q: And the solubility at 16 h [11]?
A: 200 µM (≈ 68.8 µg/mL)

Q: And the MIC [12]?
A: 0.78 µM (≈ 0.268 µg/mL)

Q: What about the MIC (MRSA-2) of the same compound?
A: 0.78 µM

Q: What about the MIC ([13]; Table 7, read-out: MIC, M. tuberculosis H37Ra) of the same compound?
A: 3.13 µM

Q: And the MIC ([13]; read-out: MIC, M. tuberculosis)?
A: ~1 µg/mL

Q: What about the MBC [5] of the same compound?
A: 100 µM (≈ 34.4 µg/mL)

Q: And the MIC [14]?
A: 0.78 µM (≈ 0.268 µg/mL)

Q: What about the MIC ([15]; ATCC12228, read-out: MIC, S. epidermidis 12228) of the same compound?
A: 3.13 µM (≈ 1.08 µg/mL)

Q: What about the MIC ([15]; ATCC12228, read-out: MIC, Staphylococcus epidermidis (ATCC 12228)) of the same compound?
A: 3.13 µM (≈ 1.08 µg/mL)

Q: And the MIC (A. baumannii 19606)?
A: > 100 µM

Q: What about the MIC (MRSA BAA-1707) of the same compound?
A: 0.3 µM (≈ 0.103 µg/mL)

Q: What about the MIC ([16]; Table 2A) of the same compound?
A: 0.78 µM (≈ 0.268 µg/mL)

Q: And the MIC ([16]; Table 7, a midpoint of 2-fold range, b lowest concentration tested)?
A: 0.78 µM (≈ 0.268 µg/mL)

Q: What about the MIC (MRSA BAA-44) of the same compound?
A: 1.17 µM (≈ 0.402 µg/mL)

Q: What about the IC50 at 24 h (in vitro) of the same compound?
A: > 100 µM
